Values quoted from earlier work, collected in patent US20220265591A1, “USE OF AN OSMOLYTE IN MANUFACTURE OF A MEDICAMENT FOR TREATMENT OF OCULAR DISORDERS” (SINGAPORE HEALTH SERVICES PTELTD, priority 2019, published 2022).

Tested on: TGFBIp derived peptides
Details: 0.001-0.02% (0.03-0.6 mM), close to critical micellar concentration; cited from earlier work

Substance: benzalkonium chloride
- effect on amyloid fibril formation: accelerated the amyloid fibril formation
